Measured values taken from patent publication US20140128357A1, “METHODS OF PRODUCING AND USING BRASSINOSTEROIDS TO PROMOTE GROWTH, REPAIR AND MAINTENANCE OF SKELETAL MUSCLE AND SKIN” (Rutgers University, priority 2010, published 2014).
Marks after values point to notes of the source that are not given here.

Legend:
[1] = tested on: AKT (Ser473) phosphorylation in L6 myotubes; assay: AKT (Ser473) phosphorylation, Western blot; type: cell-based, rat
Description: In some aspects, Western blot analyses were carried out. Fully differentiated L6 myotubes were cultured as described above, and whole cell extracts were prepared in ice-cold RIPA buffer supplemented with 10 mM sodium fluoride, 2 mM sodium orthovanadate, 1 mM PMSF, and protease inhibitor cocktail (Sigma) and centrifuged at 12,000 g for 20 min at 4° C. Equal amounts of protein (50 μg) from the supernatants were separated on 10% SDS polyacrylamide gels and blotted onto the nitrocellulose membrane. Western blot detection was carried out with monoclonal phospho-AKT (Ser473) antibodies according to the manufacturer's instructions (Cell Signaling Technology, Danvers, Mass.). After being washed, the blots were incubated with an anti-rabbit peroxidase-labeled secondary antibody and visualized using ECL Western Blotting Detection Reagent (GE Healthcare, Piscataway, N.J.). After being stripped, the same blots were probed with total AKT antibodies to serve as loading controls.

[2] = tested on: L6 rat myotubes; assay: Protein synthesis, [3H]-phenylalanine incorporation in myotubes; type: cell-based; settings: IGF-1 6.5 nM positive control, 4 h
Description: In some aspects, cell culture experiments were carried out. Rat L6 skeletal muscle cell line CRL-1458 was obtained from ATCC (Manassas, Va.). Myoblasts were routinely maintained in Dulbecco's modified Eagle's medium (DMEM) containing 10% FBS and 0.1% penicillin-streptomycin at 37° C. and 5% CO2. Cells were subcultured into 24-well plates for protein synthesis, degradation, and cell viability studies and into 6-well plates for Western blot analyses (Greiner Bio One, Monroe, N.C.). Once cells reached 90% confluence, differentiation was induced by lowering the serum concentration to 2%, and medium was changed every 2 days. After 7-9 days of culture the myoblasts had fused into multinucleated myotubes (Mandel et al., Nature 251:618-620, 1974). NIH 3T3 murine embryonic fibroblast cell line (ATCC #CCL-92) was maintained in DMEM and 10% FBS at 37° C. in 5% CO2, and passaged every 3-4 days.
In various aspects, protein synthesis is measured to determine the effect of brassinosteroid on a particular protein. All known methods for measuring protein synthesis are included in the methods of the disclosure. In brassinosteroid dose response studies, fully differentiated myotubes were washed with serum-free DMEM and treated in triplicate with vehicle (0.1% ethanol), increasing concentrations of HB, or 6.5 nM of insulin-like growth factor-1 (IGF-1) as a positive control. Compounds were added to serum-free medium containing 0.5 μCi/mL [^3H]-phenylalanine and incubated for 4 h. For the HB time course study, fully differentiated myotubes were treated with 3 μM HB for 1-24 h using the same culture conditions. The incubation was stopped by placing cells on ice, discarding the medium, and washing the cells extensively with ice-cold PBS to remove the non-incorporated radiolabel. Proteins were precipitated with 5% trichloroacetic acid and dissolved in 0.5N NaOH (Montgomery et al., Methods Cell. Sci. 24:123-129, 2002). Specific radioactivity of protein-bound phenylalanine was quantified using liquid scintillation counter LS 6500 (Beckman Coulter, Fullerton, Calif.) and normalized to mg of total protein determined by BCA protein assay (Pierce Biotechnology, Rockford, Ill.).
The bioactivity of HB and its analogs was evaluated by measuring increases in protein synthesis in the L6 rat skeletal muscle cells in vitro. Cells were incubated for 4 h with [^3H]-phenylalanine and treated in triplicate with vehicle (0.1% ethanol) or test compound (10 μM), and protein synthesis was measured as incorporation of [^3H]-phenylalanine into protein normalized by total protein (Table 3). Under these conditions, both HB and (22S,23S)-homocastasterone increased protein synthesis by 37.2±5.9% (p<0.001) and 41.0±2.7% (p<0.001), respectively. This protein synthesis increase compared favorably to the biological activity of IGF-1 at 6.5 nM (42.5±4.5%, p<0.001) that served as a positive control in this assay. Removal of the 2α-hydroxyl group and fluorination at C-3 in the A ring (compound IDs 3-4 in Table 3) led to about a 50% decrease in bioactivity (24.6±5.3%, p<0.01 and 22.5±2.7%, p<0.01, respectively) compared to the positive control. However, there was still an increase in protein synthesis. […] Modifications in the side chain (compound IDs 7-9 in Table 3) abolished the activity.

[3] = tested on: elastin mRNA in human neonatal dermal fibroblasts (HNDF); assay: Elastin gene expression in human dermal fibroblasts, qPCR; type: cell-based; settings: 16 h
Description: Human neonatal dermal fibroblasts (HNDF) were maintained in DMEM+10% FBS and were kept in a humidified 37° C. incubator with 5% CO2. Cells were plated at a density of 1×10^4 cells per well in a 24-well plate and incubated for 24 h, or until 100% confluency was reached. Subsequently, the media was removed and cells were washed with 500 μL PBS twice to remove detached cells or cell debris. HNDF were then treated for 16 h as follows: DMEM only, retinoic Acid 5 μM, retinoic acid 10 μM, Homocastasterone 5 μM and Homocastasterone 10 μM.
RNA was extracted from HNDF using Trizol reagent (Invitrogen) following manufacturer instructions. RNA was quantified spectrophotometrically by absorbance measurements at 260 nm and 280 nm using the NanoDrop system (NanoDrop Technologies, Wilmington, Del.). Quality of RNA was assessed by separation in gel-electrophoresis. To remove any traces of DNA contamination, RNA was then treated with Dnase I (Invitrogen) following the manufacturer guidelines. Complementary DNAs (cDNAs) were synthesized using 3.0 μg of RNA for each sample using Applied Biosystems High Capacity cDNA Reverse Transcription Kit following the manufacturer's protocol.
Quantitative RT-PCR (qPCR) amplifications were carried out in triplicate on an ABI 7300 Real-Time Detection System in a total volume of 25 μl containing 12.5 μl Brilliant SYBR® Green PCR master mix (Applied Biosystems), 5 μl of the 1:25 diluted cDNA, 0.5 μl of 6 μM gene-specific primers (IDT, Coralville, Iowa) and […] PCR-grade water. Primers were synthesized by Integrated DNA Technologies, Inc. (Coralville, Iowa, USA) as follows: β-actin, forward primer 5′-ACGTTGCTATCCAGGCTGTGCTAT-3′ (SEQ ID NO: 1), reverse primer 5′-CTCGGTGAGGATCTTCATGAGGTAGT-3′ (SEQ ID NO: 2); elastin, forward primer 5′-AAGCAGCAGCAAAGTTCGGT-3′ (SEQ ID NO: 3), and reverse primer 5′-ACTAAGCCTGCAGCAGCTCCATA-3′ (SEQ ID NO: 4). qPCR amplifications were performed on the 7300 Real Time PCR System (A&B Applied Biosystems) using 1 cycle at 50° C. for 2 min, 1 cycle at 95° C. for 10 min, followed by 40 cycles of 15 s at 95° C. and 1 min at 60° C. The dissociation curve was completed with one cycle of 15 s at 95° C., 1 min at 60° C., and 15 s of 95° C. No RT (NRT) and no template control (NTC) were included in each experiment as quality control steps. Target mRNA expression was analyzed using the ΔΔCt method and normalized with respect to the expression of the β-actin housekeeping gene. Cells treated with DMEM only (negative control) served as the calibrator sample in this study, and a value of 1.0 was assigned to the target gene expression of the calibrator sample. All samples were run in triplicate. A p value of 0.001 was considered to be significant.

[4] = tested on: cutaneous wound in C57BL/6J mice; assay: Mouse cutaneous injury model of wound healing; type: in vivo; settings: 10 μg/mouse/day topically for 10 days
Description: Under volatile anesthesia (5% isoflurane to effect), the shoulder and back region of each animal was shaved. A sharp punch (ID 6 mm) over their lumbar spine was applied to remove the skin, including panniculus carnosus and adherent tissues. Test substances were administered topically (TOP), immediately following cutaneous injury, once daily for 10 consecutive days. […] Wounds were traced onto clear plastic sheets and were measured by use of an ImageJ program (rsbweb.nih.gov/ij/), online from the National Institutes of Health (NIH). ImageJ is a public domain, Java-based image processing program developed at the NIH. Time to wound closure was estimated by comparing the area of the wound undergoing treatment to the areas of the wound undergoing control treatments. The percent closure of the wound (%) was calculated, and wound half-closure time (the time at which 50% of the cutaneous wound is closed, CT50) was analyzed by linear regression using Graph-Prism (Graph Software USA). At the end of experiment (10 days after the induction of the wound), animals were euthanized by CO2 gas inhalation. Blood was collected by heart puncture. Wound tissue and muscle were collected for immunohistochemical analyses and wound healing factor assays. HB increased the percent of wound closure in vivo in a mouse model of wound closure (FIG. 13). […] Twenty seven six-week-old male C57BL/6J mice, obtained from the Jackson Laboratory (Bar Harbor, Me.), were housed in individual chambers in a room maintained at a constant temperature with 12 h light-dark cycle. Mice had free access to food and water. Mice were allowed to adapt to new conditions for seven days and handling the mice was performed daily during this time to reduce the stress of physical manipulation. Mice were randomized into groups (n=9) according to body weight one day prior to dosing. Under volatile anesthesia (5% isoflurane to effect), the shoulder and back region of each animal was shaved. A sharp punch (ID 6 mm) over lumbar spine was applied to remove the skin including panniculus carnosus and adherent tissues. […] Pharmacol. 77: 1117-1124, 2009) as a positive control) was administered topically, immediately following cutaneous injury, and then daily for 10 days. To investigate the kinetics of wound healing, wound size was photographed and measured every two days with ImageJ software (rsbweb.nih.gov/ij/). […] The percent closure of the wound (%) was calculated, and time at which 50% of the cutaneous wound was closed (CT50) was analyzed by linear regression. […] Wound sizes were photographed and measured every 2 days for 10 days. Wound closure (%) relative to day 1 was determined every 2 days, and CT50 was calculated by linear regression. […]

[5] = tested on: TNF-α, TGF-β and ICAM-1 mRNA in wounds; assay: Cytokine and chemokine mRNA in wound tissue, qPCR; type: in vivo; settings: day 10 post-wounding, 10 μg/mouse topically
Description: Cutaneous would healing is characterized by an initial inflammatory response. To evaluate the effect of brassinosteroids on inflammation in wound healing, mRNA levels of proinflammatory cytokines TNF-α and TGF-β and an adhesion chemokine ICAM-1 were measured in the wound tissue of control and treated mice on day 10 post-wounding and treatment with HB, positive control (CGS-21680), or negative control (vehicle).
Total RNA was extracted from fibroblasts using Trizol (Invitrogen, Carlsbad, Calif.). RNA was quantified spectrophotometrically by absorbance measurements at 260 and 280 nm using the NanoDrop reader (NanoDrop Technologies, Wilmington, Del.). Quality of RNA was assessed by gel electrophoresis. RNA was then treated with DnaseI (Invitrogen, Carlsbad, Calif.) to remove traces of DNA contamination and the cDNAs were synthesized with 2.5 μg of RNA using Stratascript reverse transcriptase (Stratagene, Santa Clara, Calif.) according to the manufacturers' protocols. Quantitative PCR was performed in duplicate essentially as described previously (Komarnytsky et al., Int. J. Obes. 35: 236-43, 2011) using the following gene-specific primers (IDT, Coralville, Iowa) selected using the Primer Express 2.0 software (Applied Biosystems, Foster City, Calif.): β-actin, forward primer 5′-GGGAAATCGTGCGTGACATT-3′ (SEQ ID NO: 5), and reverse primer 5′-GCG GCA GTG GCC ATC TC-3′ (SEQ ID NO: 6). Target gene expression of the housekeeping gene β-actin was assigned a value of 1. Samples were subjected to a melting curve analysis to confirm the amplification specificity. The relative change in the […] with respect to the endogenous control gene was determined using 2ΔΔCT method (Winer et al., Anal. Biochem. 270: 41-9, 1999).

## IGF-1: Insulin-like growth factor 1, positive control for protein synthesis
[1]
  time to AKT phosphorylation: ≤ 10 min
[2]
  Protein synthesis (% increase over control): 42.5±4.5%

## CC1=C(/C=C/C(C)=C/C=C/C(C)=C/C(=O)O)C(C)(C)CCC1 [Retinoic Acid, reference compound]
[3]; 5 μM
  Increase in elastin mRNA levels (-fold over control): 2.9** fold
[3]; 10 μM
  Increase in elastin mRNA levels (-fold over control): 2.7** fold

## CCNC(=O)[C@H]1O[C@@H](n2cnc3c(N)nc(NCCc4ccc(CCC(=O)O)cc4)nc32)[C@H](O)[C@@H]1O [CGS-21680, reference compound]
[4]
  CT50, time at which 50% of the cutaneous wound is closed: 6.2 ± 0.4 days
[5]
  ICAM-1 mRNA in wound tissue: no effect
  TGF-β mRNA in wound tissue: no effect
  TNF-α mRNA in wound tissue: remarkable suppression
